Data set [1] concerns HIV-1 ADA. Briefly: microbe, parasite or virus in culture. The note with it: Human immunodeficiency virus 1, PBMC, 168 h. The procedure:
Infectivity Assays: The following viruses were used in infection experiments: HIV-1 IIIb, HIV-1 ADA, HIV-1 BaL, HIV-1 JRFL, HIV-1 JRCSF, and HIV-1 SF162. HIV-1 IIIb is a T cell line-adapted lab strain that uses CXCR4 for entry into cells, whereas the rest are isolates that use CCR5. Viruses were obtained from the National Institutes of Health AIDS Research and Reference Reagent Program.
(§1) For infection of PBMCs, fresh donor PBMCs were cultured for 7 days in medium containing IL-2. On day 7, cells were exposed to the virus for 3 h. Nonadsorbed virus was removed by washing cells with PBS three times. Infected cells were cultured in IL-2 medium. Infection of MDMs was carried out as described before (Perno, 1993). Unless otherwise indicated, PBMCs were infected by using an moi of 0.001, and MDM were infected by using an moi of 0.002. Virus growth was monitored in culture supernatants by measuring p24 antigen levels by ELISA (NEN) or by measuring viral RT activity in an RT assay (Willey, 1988).
Antiviral Activity of RAPA in PBMCs: The antiviral activity of RAPA was assayed in PBMCs that had been cultured in the presence of RAPA for 7 days before infection. Cells were infected with the X4 HIV-1 IIIb and the R5 HIV-1 ADA strains. Infected cells were cultured in the presence of RAPA (same concentration as during pretreatment) for 7 additional days, during which time virus replication and cell viability were measured.
To test this hypothesis, donor PBMCs were cultured in IL-2 medium in the absence or presence of RAPA (1, 10, and 100 nM). […] Infected cells were cultured in the presence of RAPA (same concentration as during pretreatment) plus 0.1 nM TAK-779. Virus production was determined 7 days after infection.
Donor PBMCs were cultured in IL-2 medium in the absence or presence of HU (0 and 10 uM). After 7 days, cells were infected with HIV-1 ADA. Infected cells were cultured in the presence of HU (same concentration as during pretreatment) plus different concentration of TAK-779 ranging from 0, 2 and 20 nM). Virus production was determined 7 days after infection.
In order to determine the nature and degree of interaction between RAPA and T20, infectivity assays were performed in the presence of the drugs, alone and in combination. The infectivity assays were performed using PBMCs from healthy donors. PBMCs were cultured for 7 days in the presence of IL-2 (100 U/ml) in the presence or absence of RAPA. On day 7, cells were infected by exposure to the R5 strain HIV-1 ADA (m.o.i of 0.001) for 2 h. Non-adsorbed virus was removed by 3 washes with PBS. Infected cells were then plated in RPMI-10 supplemented with IL-2 (100 U/ml) in the presence of different concentrations of RAPA and T20. Each drug concentration was tested in triplicate. Medium was changed in day 3 after infection and drugs were added at the same concentration as before. On day 7 after infection, virus production was measured in the culture supernatants using a commercial p24 antigen ELISA (NCI, Frederick). Cell viability was determined using the MTT assay (Roche).
The antiviral data was then analyzed for synergy using two different methodologies, the Median Effect principle and Three Dimensional modeling.

Data set [2] concerns HIV-1 SF 162. The data set can be described thus: HIV-1 SF 162 replication in monocyte-derived macrophages. It counts as cell-based. The note with it: Human immunodeficiency virus 1, Macrophage; RAPA at 0.01 nM, additional experiment; read-out: inhibition of HIV-1 SF 162 in MDMs. How it is done:
as §1
(§2) To this end, donor monocytes were cultured for 5 days in the presence of RAPA. On day 5, cells were infected with HIV-1 ADA. Infected cells were cultured in the presence of RAPA for an additional 14 days. Virus production was measured on the culture supernatants on days 7, 10, and 14 after infection. Cell viability was measured by the MTT assay at the end of the experiment.

Data set [3] relates to PBMCs. The note with it: PBMCs with IL-2, day 7.
The subject of data set [4] is HIV-1 ADA. Briefly: HIV-1 ADA replication in monocyte-derived macrophages (RT assay). It counts as cell-based. How it is done: as §1, §2
In the above-described experiment, monocytes had been pretreated with RAPA during the 5-day differentiation period. To control for the possible interference of RAPA with the process of monocyte differentiation, a new infection experiment in which RAPA was not present during the 5-day monocyte differentiation period was designed. To this end, fresh monocytes were cultured for 5 days in the absence of RAPA. On day 5, cells were infected with HIV-1 ADA and then exposed to RAPA.

The test system of data set [5] is CCR5. The data set can be described thus: CCR5 cell-surface expression on maturing monocytes (CD14-gated flow cytometry). It counts as cell-based, human. The note with it: monocytes cultured 5 days, three donors.
Where [6] appears, read: read-out: Fa (fractional inhibition).

What is called IC50 is the concentration at which inhibition is half-maximal. As usually defined, the inhibition is the share of the control response that was lost under treatment.

Where only a bound is given, the exact number is not on record here.

On to `CO[C@H]1C[C@@H]2CC[C@@H](C)[C@@](O)(O2)C(=O)C(=O)N2CCCC[C@H]2C(=O)O[C@H]([C@H](C)C[C@@H]2CC[C@@H](O)[C@H](OC)C2)CC(=O)[C@H](C)/C=C(\C)[C@@H](O)[C@@H](OC)C(=O)[C@H](C)C[C@H](C)/C=C/C=C/C=C/1C` [RAPA, rapamycin], for which the IC50 in data set [1] (read-out: Dm (dose at 50% inhibition, equivalent to IC50 value)) was 310 pM. In addition, in data set [1] (setting [6]), the inhibition at 30 pM came to 1.7%, the inhibition at 60 pM amounted to 10.2%, the inhibition at 0.00012 µM came to 11.4% and the inhibition at 0.00025 µM turned out to be 54%. For the same compound, in data set [1] (setting [6]), the inhibition at 0.0005 µM was 62% and the inhibition at 0.001 µM was found to be 88%. Moreover, the inhibition at 10 pM in data set [2] came to 45%. Further, the “drug concentration at which drug toxicity was observed” value in data set [3] is reported as “above 10^3 nM”. In data set [4] (1 nM RAPA added after infection on day 5, day 14 after infection, one value per donor), the “inhibition of virus replication in already differentiated macrophages” value is on record as approximately 80%. Moreover, the inhibition at 0.001 µM in data set [4] (Human immunodeficiency virus 1, Macrophage, 1 nM RAPA added after infection on day 5, day 14 after infection, one value per donor, read-out: inhibition of virus replication in already differentiated macrophages) was approximately 60%. Moreover, the inhibition at 10 pM in data set [4] (Human immunodeficiency virus 1, Macrophage, RAPA at 0.01 nM, additional experiment, read-out: inhibition of HIV-1 ADA in MDMs) stood at 64%. For the same compound, the “inhibition of virus production in MDMs” value in data set [4] (RAPA 0.1-100 nM, present during 5-day differentiation, day 14 after infection) is recorded as 70-95%. Further, in data set [5], the “concentrations giving consistent down-regulation of CCR5 surface expression on monocytes” value was not below 10 pM.

The values are drawn from US7863242B2, “Compositions for down-regulation of CCR5 expression and methods of use thereof” (priority 2003, dated 2011).
